Assay results reported in ChEMBL document CHEMBL1201862, “PubChem BioAssay data set” (2004).
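Values below derive from 48-hour exposures of cells grown in 96-well plates, with endpoints linearly interpolated between the two concentrations bracketing the appropriate inhibition level. Here, GI50 denotes the concentration required for 50% inhibition of growth.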 Calls of active or inactive are those of the source. No stated cut-off is given here; in the data, active = GI50 up to about 1.1 µM and inactive = higher.

Key:
Assay in all cases: NCI tumour cell line growth inhibition, 48 h
HOP-62 = tested on: HOP-62
Malme-3M = tested on: Malme-3M
UO-31 = tested on: UO-31
KM12 = tested on: KM12
DU-145 = tested on: DU-145
SNB-19 = tested on: SNB-19
SK-MEL-5 = tested on: SK-MEL-5
TK-10 = tested on: TK-10
NCI-H460 = tested on: NCI-H460
SW-620 = tested on: SW-620
T47D = tested on: T47D
MCF7 = tested on: MCF7
SF-268 = tested on: SF-268
RXF 393 = tested on: RXF 393
NCI-H23 = tested on: NCI-H23
BT-549 = tested on: BT-549
SN12C = tested on: SN12C
SK-OV-3 = tested on: SK-OV-3
PC-3 = tested on: PC-3
MDA-MB-435 = tested on: MDA-MB-435
COLO 205 = tested on: COLO 205
OVCAR-4 = tested on: OVCAR-4
MOLT-4 = tested on: MOLT-4
LOX IMVI = tested on: LOX IMVI
UACC-257 = tested on: UACC-257
NCI-H522 = tested on: NCI-H522
HCT-15 = tested on: HCT-15
UACC-62 = tested on: UACC-62
NCI/ADR-RES = tested on: NCI/ADR-RES
IGROV-1 = tested on: IGROV-1
OVCAR-5 = tested on: OVCAR-5
CAKI-1 = tested on: CAKI-1
SNB-75 = tested on: SNB-75
OVCAR-8 = tested on: OVCAR-8
SF-539 = tested on: SF-539
HCT-116 = tested on: HCT-116
HL-60 = tested on: HL-60
OVCAR-3 = tested on: OVCAR-3
ACHN = tested on: ACHN
HOP-92 = tested on: HOP-92
MDA-N = tested on: MDA-N
A549 = tested on: A549
SF-295 = tested on: SF-295
SR = tested on: SR
CCRF-CEM = tested on: CCRF-CEM
U-251 = tested on: U-251
SK-MEL-28 = tested on: SK-MEL-28
RPMI-8226 = tested on: RPMI-8226
EKVX = tested on: EKVX
HT-29 = tested on: HT-29
786-0 = tested on: 786-0
M14 = tested on: M14
MDA-MB-231 = tested on: MDA-MB-231
K562 = tested on: K562
NCI-H226 = tested on: NCI-H226
SK-MEL-2 = tested on: SK-MEL-2
A498 = tested on: A498
Hs-578T = tested on: Hs-578T
HCC 2998 = tested on: HCC 2998

Measured: GI50

NC1=NC(c2ccc(Cl)cc2)N(c2ccc(S(=O)(=O)Nc3ncccn3)cc2)C(N)=N1 (stereo not given)
active: HL-60 0.178 µM
> 100 µM: HCT-15
inactive: HOP-62 > 100 µM | Malme-3M > 100 µM | UO-31 > 100 µM | KM12 > 100 µM | DU-145 > 100 µM | SNB-19 > 100 µM | SK-MEL-5 > 100 µM | TK-10 > 100 µM | NCI-H460 > 100 µM | SW-620 > 100 µM | T47D > 100 µM | MCF7 > 100 µM | SF-268 > 100 µM | RXF 393 > 100 µM | NCI-H23 > 100 µM | BT-549 > 100 µM | SN12C > 100 µM | SK-OV-3 > 100 µM | PC-3 > 100 µM | MDA-MB-435 > 100 µM | COLO 205 > 100 µM | OVCAR-4 > 100 µM | MOLT-4 54.8 µM | LOX IMVI > 100 µM | UACC-257 > 100 µM | NCI-H522 > 100 µM | UACC-62 > 100 µM | NCI/ADR-RES > 100 µM | IGROV-1 > 100 µM | OVCAR-5 > 100 µM | CAKI-1 > 100 µM | SNB-75 > 100 µM | OVCAR-8 > 100 µM | SF-539 > 100 µM | HCT-116 > 100 µM | OVCAR-3 > 100 µM | ACHN > 100 µM | HOP-92 > 100 µM | MDA-N > 100 µM | A549 > 100 µM | SF-295 > 100 µM | SR > 100 µM | CCRF-CEM > 100 µM | U-251 > 100 µM | SK-MEL-28 > 100 µM | RPMI-8226 > 100 µM | EKVX > 100 µM | HT-29 > 100 µM | 786-0 > 100 µM | M14 > 100 µM | MDA-MB-231 > 100 µM | K562 > 100 µM | NCI-H226 > 100 µM | SK-MEL-2 > 100 µM | A498 > 100 µM | Hs-578T > 100 µM

CCn1c(SCC(=O)NNC(=S)Nc2ccc([N+](=O)[O-])cc2)nc2ccccc2c1=O
47 µM: HCT-15
inactive: HOP-62 81.1 µM | Malme-3M 73.5 µM | UO-31 39.5 µM | KM12 68.2 µM | DU-145 > 100 µM | SNB-19 81.7 µM | SK-MEL-5 79.6 µM | TK-10 68.9 µM | NCI-H460 48.8 µM | SW-620 86.5 µM | T47D 64.3 µM | MCF7 83.4 µM | SF-268 60.1 µM | RXF 393 34.5 µM | NCI-H23 62.5 µM | BT-549 53.8 µM | SN12C 50.9 µM | SK-OV-3 > 100 µM | PC-3 41.4 µM | MDA-MB-435 > 100 µM | COLO 205 47.5 µM | OVCAR-4 48.5 µM | MOLT-4 23.2 µM | LOX IMVI 54.3 µM | UACC-257 > 100 µM | NCI-H522 39.8 µM | UACC-62 48.9 µM | NCI/ADR-RES > 100 µM | IGROV-1 > 100 µM | OVCAR-5 > 100 µM | CAKI-1 > 100 µM | SNB-75 83.4 µM | OVCAR-8 > 100 µM | SF-539 > 100 µM | HCT-116 35.3 µM | HL-60 40.7 µM | OVCAR-3 39.2 µM | HCC 2998 50.1 µM | ACHN > 100 µM | MDA-N > 100 µM | A549 > 100 µM | SF-295 58.2 µM | SR 23 µM | CCRF-CEM 37.2 µM | U-251 73.3 µM | SK-MEL-28 57.5 µM | RPMI-8226 29.9 µM | EKVX > 100 µM | 786-0 60.5 µM | M14 > 100 µM | MDA-MB-231 > 100 µM | K562 42.7 µM | NCI-H226 90.4 µM | SK-MEL-2 > 100 µM | A498 48.2 µM | Hs-578T > 100 µM
